# Where two headings read alike, the source gives them in different places.
# Tests used:
# [1] = system: hand-foot syndrome induced by anti-tumor agents; test: Prevention of hand-foot syndrome induced by anti-tumor agents in rats, NO-NSAID ointment on hind paws (Table 2-2); type: in vivo, SD rats; settings: Rattus norvegicus, topical, read-out: Control rate; for responders at 1 %: ointment 1% wt; for responders at 3 %: ointment 3% wt
# In short: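 Female SD rats (8 weeks, ~200 g; 10/group) received anti-tumour agents by daily oral gavage in Cremophor EL:ethanol 1:1 diluted ~3× with PBS. NO-NSAID or blank ointment was applied to hind paws once daily, 4 h restrained, then wiped off. Control rate = blank-group minus treated-group hand-foot syndrome incidence.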
# [2] = system: HUVEC cells; test: CCK-8 cell viability: alleviation of proliferative toxicity of anti-tumor agents on HUVEC cells (Tables 7-1, 7-2); type: cell-based; settings: for activation at 100 µM: Homo sapiens, 24 h, percentage increase in viable cells vs anti-tumor agent alone, read-out: Response rate % (average)
# In short: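 HUVEC cells were treated with anti-tumor agent (DMSO solvent) alone or combined with NO-NSAID (ethanol or water solvent), and NO-NSAID solvent controls were used for correction. After 24-48 h of culture, viability was read by CCK-8 to derive proliferative toxicity and how much NO-NSAID mitigated it.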
# [3] = 120 h, Sorafenib 80 mg/kg once a day, Days 5
# [4] = 432 h, Regorafenib 90 mg/kg once a day, Days 18
# [5] = Afatinib (10 μM), NO-NSAID 100 μM
# [6] = Cabozantinib (5 μM), NO-NSAID 100 μM
# [7] = Dabrafenib (10 μM), NO-NSAID 100 μM
# [8] = Everolimus (5 μM), NO-NSAID 100 μM
# [9] = Infigratinib (15 μM), NO-NSAID 100 μM
# [10] = Lapatinib (5 μM), NO-NSAID 100 μM
# [11] = Lenvatinib (10 μM), NO-NSAID 100 μM
# [12] = Olmutinib (10 μM), NO-NSAID 100 μM
# [13] = Regorafenib (5 μM), NO-NSAID 100 μM
# [14] = Selumetinib (5 μM), NO-NSAID 100 μM
# [15] = Sorafenib (5 μM), NO-NSAID 100 μM
# [16] = Sunitinib (5 μM), NO-NSAID 100 μM
compound,measurement,setting,value
CC(=O)Oc1ccccc1C(=O)OCOC(=O)CCCCCO[N+](=O)[O-] [Compound A3],responders at 1 %,[1]; [3],50%
same,responders at 3 %,[1]; [3],57.1%
same,responders at 1 %,[1]; [4],42.9%
same,responders at 3 %,[1]; [4],71.4%
same,NO-NSAID response rate % (average),"[2]; Afatinib (10 μM), NO-NSAID 0.1 μM",15%
same,NO-NSAID response rate % (average),"[2]; Afatinib (10 μM), NO-NSAID 1 μM",24%
same,NO-NSAID response rate % (average),[2]; [5],32%
same,NO-NSAID response rate % (average),"[2]; Afatinib (10 μM), NO-NSAID 500 μM",22%
same,NO-NSAID response rate % (average),"[2]; Cabozantinib (5 μM), NO-NSAID 0.1 μM",14%
same,NO-NSAID response rate % (average),"[2]; Cabozantinib (5 μM), NO-NSAID 1 μM",29%
same,NO-NSAID response rate % (average),[2]; [6],56%
same,NO-NSAID response rate % (average),"[2]; Cabozantinib (5 μM), NO-NSAID 500 μM",24%
same,NO-NSAID response rate % (average),"[2]; Dabrafenib (10 μM), NO-NSAID 0.1 μM",25%
same,NO-NSAID response rate % (average),"[2]; Dabrafenib (10 μM), NO-NSAID 1 μM",30%
same,NO-NSAID response rate % (average),[2]; [7],64%
same,NO-NSAID response rate % (average),"[2]; Dabrafenib (10 μM), NO-NSAID 500 μM",33%
same,NO-NSAID response rate % (average),"[2]; Everolimus (5 μM), NO-NSAID 0.1 μM",−8%
same,NO-NSAID response rate % (average),"[2]; Everolimus (5 μM), NO-NSAID 1 μM",−8%
same,NO-NSAID response rate % (average),[2]; [8],56%
same,NO-NSAID response rate % (average),"[2]; Everolimus (5 μM), NO-NSAID 500 μM",1%
same,activation at 100 µM,[2]; [5],32%
same,activation at 100 µM,"[2]; Anlotinib (5 μM), NO-NSAID 100 μM",73%
same,activation at 100 µM,"[2]; Apatinib (10 μM), NO-NSAID 100 μM",15%
same,activation at 100 µM,"[2]; Axitinib (10 μM), NO-NSAID 100 μM",35%
same,activation at 100 µM,[2]; [6],56%
same,activation at 100 µM,[2]; [7],64%
same,activation at 100 µM,"[2]; Dacomitinib (5 μM), NO-NSAID 100 μM",32%
same,activation at 100 µM,"[2]; Encorafenib (5 μM), NO-NSAID 100 μM",28%
same,activation at 100 µM,"[2]; Erdafitinib (10 μM), NO-NSAID 100 μM",59%
same,activation at 100 µM,[2]; [8],56%
same,activation at 100 µM,"[2]; Famitinib (5 μM), NO-NSAID 100 μM",39%
same,activation at 100 µM,"[2]; Fruquintinib (10 μM), NO-NSAID 100 μM",22%
same,activation at 100 µM,"[2]; Gefitinib (10 μM), NO-NSAID 100 μM",26%
same,activation at 100 µM,[2]; [9],28%
same,activation at 100 µM,[2]; [10],40%
same,activation at 100 µM,[2]; [11],69%
same,activation at 100 µM,[2]; [12],57%
same,activation at 100 µM,[2]; [13],55%
same,activation at 100 µM,[2]; [14],49%
same,activation at 100 µM,[2]; [15],3%
same,activation at 100 µM,[2]; [16],50%
same,activation at 100 µM,"[2]; Vemurafenib (5 μM), NO-NSAID 100 μM",80%
same,NO-NSAID response rate % (average),"[2]; Infigratinib (15 μM), NO-NSAID 0.1 μM",18%
same,NO-NSAID response rate % (average),"[2]; Infigratinib (15 μM), NO-NSAID 1 μM",28%
same,NO-NSAID response rate % (average),[2]; [9],28%
same,NO-NSAID response rate % (average),"[2]; Infigratinib (15 μM), NO-NSAID 500 μM",20%
same,NO-NSAID response rate % (average),"[2]; Lapatinib (5 μM), NO-NSAID 0.1 μM",20%
same,NO-NSAID response rate % (average),"[2]; Lapatinib (5 μM), NO-NSAID 1 μM",20%
same,NO-NSAID response rate % (average),[2]; [10],40%
same,NO-NSAID response rate % (average),"[2]; Lapatinib (5 μM), NO-NSAID 500 μM",19%
same,NO-NSAID response rate % (average),"[2]; Lenvatinib (10 μM), NO-NSAID 0.1 μM",21%
same,NO-NSAID response rate % (average),"[2]; Lenvatinib (10 μM), NO-NSAID 1 μM",14%
same,NO-NSAID response rate % (average),[2]; [11],69%
same,NO-NSAID response rate % (average),"[2]; Lenvatinib (10 μM), NO-NSAID 500 μM",20%
same,NO-NSAID response rate % (average),"[2]; Olmutinib (10 μM), NO-NSAID 0.1 μM",27%
same,NO-NSAID response rate % (average),"[2]; Olmutinib (10 μM), NO-NSAID 1 μM",35%
same,NO-NSAID response rate % (average),[2]; [12],57%
same,NO-NSAID response rate % (average),"[2]; Olmutinib (10 μM), NO-NSAID 500 μM",23%
same,NO-NSAID response rate % (average),"[2]; Regorafenib (5 μM), NO-NSAID 0.1 μM",32%
same,NO-NSAID response rate % (average),"[2]; Regorafenib (5 μM), NO-NSAID 1 μM",37%
same,NO-NSAID response rate % (average),[2]; [13],55%
same,NO-NSAID response rate % (average),"[2]; Regorafenib (5 μM), NO-NSAID 500 μM",26%
same,NO-NSAID response rate % (average),"[2]; Selumetinib (5 μM), NO-NSAID 0.1 μM",28%
same,NO-NSAID response rate % (average),"[2]; Selumetinib (5 μM), NO-NSAID 1 μM",53%
same,NO-NSAID response rate % (average),[2]; [14],49%
same,NO-NSAID response rate % (average),"[2]; Selumetinib (5 μM), NO-NSAID 500 μM",34%
same,NO-NSAID response rate % (average),"[2]; Sorafenib (5 μM), NO-NSAID 0.1 μM",13%
same,NO-NSAID response rate % (average),"[2]; Sorafenib (5 μM), NO-NSAID 1 μM",7%
same,NO-NSAID response rate % (average),[2]; [15],3%
same,NO-NSAID response rate % (average),"[2]; Sorafenib (5 μM), NO-NSAID 500 μM",29%
same,NO-NSAID response rate % (average),"[2]; Sunitinib (5 μM), NO-NSAID 0.1 μM",10%
same,NO-NSAID response rate % (average),"[2]; Sunitinib (5 μM), NO-NSAID 1 μM",37%
same,NO-NSAID response rate % (average),[2]; [16],50%
same,NO-NSAID response rate % (average),"[2]; Sunitinib (5 μM), NO-NSAID 500 μM",7%

# Reference: patent publication US20250170090A1, “METHOD FOR PREVENTING OR TREATING DISEASE OR DISORDER ASSOCIATED WITH ANTINEOPLASTIC AGENT” (ONQUALITY PHARMACEUTICALS CHINA LTD., priority 2022, published 2025)
